Assay results as given in article PMC10611374, “Characterization of the Hemolytic Activity of Mastoparan Family Peptides from Wasp Venoms” (Toxins, 2023).
Values joined by “and” are separate entries in the source; they are usually repeats but may differ in a detail not shown here. Equal values may be shown once. Read-outs that look alike come from different tables or passages of the source. Ends that are not written are not given here.

Columns and labels:
[1] = test system: human red blood cells (HRBCs); assay: Hemolytic assay on human red blood cells; type: cell-based; conditions: human red blood cells 5% (v/v) in PBS, 37 °C 1 h, OD 540 nm; for EC50: four-parameter logistic fit of mean of three independent experiments, '-' = hemolytic activity too low to calculate the EC50; for HRBC Hemolysis (hemolysis rate at 320 μg/mL): peptide 320 μg/mL (highest dose), PBS = 0%, mean of three independent experiments
Method: (§1) Fresh human red blood cells were obtained from healthy donors and collected in a sterile blood collecting vessel covered with sodium citrate (1:9) as the anticoagulating agent. Rat red blood cells were collected from the abdominal aorta in sterile blood-collecting vessels coated with sodium citrate (1:4) after the SD rats were anaesthetized with isoflurane. Then, the cells were washed three times with phosphate-buffered saline via centrifugation (1000× g, 4 °C, 5 min) and prepared in a sterile 96-well polypropylene plate to achieve a final concentration of 5% (v/v). Twofold dilutions of the peptides were prepared in PBS to 100 μL and mixed with an equal volume of HRBCs/RRBCs suspension to final peptide concentrations ranging from 10 to 320 μg/mL. After coincubation at 37 °C for 1 h, the plate was centrifuged (2000× g, 4 °C, 20 min), and 100 μL of supernatant was taken for optical density measurements at 540 nm using a microtiter plate reader (SpectraMax 190). The HRBCs/RRBCs were assayed with PBS (blank) or 1% Triton X-100 (positive control) to represent 0% and 100% hemolysis, respectively. The percent hemolysis was calculated according to the following equation: Hemolysis Rate (%) = 100% × (Amastoparans − Ablank)/(ATriton X-100 − Ablank). Three independent experiments were performed, and the mean hemolysis rate at each dose was used to calculate the EC50 in Sigmaplot software.
(§2) Statistical analysis was performed with GraphPad Prism software (version 5.0, San Diego, CA, USA). A two-tailed Student’s t-test was used to calculate the statistical probability in this study. Differences in the data were considered to be statistically significant when the p value was equal to or less than 0.05. The curve of hemolysis induced by wasp mastoparans was generated in SigmaPlot 12.5 software, and the EC50 was calculated according to the equation (Four Parameter Logistic Curve): y = min + (max − min)/(1 + (x/EC50)^−Hillslope). The heat map of hemolytic activity of mastoparan peptide was analysed in R software which is based on the value of log2(EC50).

[2] = test system: rat red blood cells (RRBCs); assay: Hemolytic assay on rat red blood cells; type: cell-based, SD rats; conditions: rat red blood cells 5% (v/v) in PBS, 37 °C 1 h, OD 540 nm; for EC50: four-parameter logistic fit of mean of three independent experiments, '-' = hemolytic activity too low to calculate the EC50; for RRBC Hemolysis (hemolysis rate at 320 μg/mL): peptide 320 μg/mL (highest dose), PBS = 0%, mean of three independent experiments
Method: as §1, §2

[3] = Table 2 series, read-out: HRBC EC50 (hemolytic activity), Protopolybia-MPIII and mutants
[4] = Table 2 series, read-out: RRBC EC50 (hemolytic activity), Protopolybia-MPIII and mutants
[5] = peptide 10-320 μg/mL twofold dilutions, 1% Triton X-100 = 100%, read-out: HRBC EC50 (hemolytic activity)
[6] = peptide 10-320 μg/mL twofold dilutions, 1% Triton X-100 = 100%, read-out: RRBC EC50 (hemolytic activity)

| Molecule | EC50 [1, 3] | EC50 [2, 4] | HRBC Hemolysis (hemolysis rate at 320 μg/mL) ([1]; 1% Triton X-100 = 100%) | EC50 [1, 5] | RRBC Hemolysis (hemolysis rate at 320 μg/mL) ([2]; 1% Triton X-100 = 100%) | EC50 [2, 6] | EC50 ([1]; peptide 10-320 μg/mL twofold dilutions, 1% Triton X-100 = 100%, listed as Polybia-MPII, read-out: HRBC EC50 (hemolytic activity)) | EC50 ([1]; peptide 10-320 μg/mL twofold dilutions, 1% Triton X-100 = 100%, listed as Polybia-MPI, read-out: HRBC EC50 (hemolytic activity)) |
| --- | --- | --- | --- | --- | --- | --- | --- | --- |
| INWLKLGKKVIAIL-NH2 [Protopolybia-MPIII-12] | 43.9 ± 3.6 µM | 55.2 ± 2.2 µM |  |  |  |  |  |  |
| CC[C@H](C)[C@H](N)C(=O)N[C@@H](CC(N)=O)C(=O)N[C@@H](CC(C)C)C(=O)N[C@@H](CCCCN)C(=O)N[C@@H](C)C(=O)N[C@@H](CC(C)C)C(=O)N[C@@H](C)C(=O)N[C@@H](C)C(=O)N[C@@H](CC(C)C)C(=O)N[C@@H](C)C(=O)N[C@@H](CCCCN)C(=O)N[C@@H](CCCCN)C(=O)N[C@H](C(=O)N[C@@H](CC(C)C)C(N)=O)[C@@H](C)CC [Mastoparan (L)] |  |  | 100% | 82.9 ± 3.8 µM | 41% | 242 ± 2.6 µM |  |  |
| FDLLGLVKKVASAL-NH2 [EpVP2a] |  |  | 79% | 152 ± 6.3 µM | 41% | 239 ± 7.6 µM |  |  |
| INWKKIKSLIKAAMS-NH2 [Mastoparan-V2] |  |  | 15% |  | 52% | 182 ± 3.6 µM |  |  |
| INLFGFAALVKKFL-NH2 [Mastoparan-T4] |  |  | 100% | 28.5 ± 2.3 µM | 100% | 17.6 ± 2.4 µM |  |  |
| INLKAIAALVKKVL-NH2 [HR1] |  |  | 56% | 198 ± 8.9 µM | 39% | 253 ± 13 µM |  |  |
| INWLKLGKKVIDIL-NH2 [Protopolybia-MPIII-7] | 37.8 ± 3.7 µM | 57.5 ± 2.7 µM |  |  |  |  |  |  |
| INWKAILQRIKKML-NH2 [Agelaia-MPII] |  |  | 100% | 44.8 ± 10.4 µM | 97% | 62.1 ± 3.8 µM |  |  |
| CC[C@H](C)[C@H](NC(=O)[C@H](CC(=O)O)NC(=O)[C@@H](N)Cc1ccccc1)C(=O)N[C@@H](CCSC)C(=O)NCC(=O)N[C@@H](CC(C)C)C(=O)N[C@H](C(=O)N[C@@H](CCCCN)C(=O)N[C@@H](CCCCN)C(=O)N[C@H](C(=O)N[C@@H](C)C(=O)NCC(=O)N[C@@H](C)C(=O)N[C@@H](CC(C)C)C(N)=O)C(C)C)[C@@H](C)CC [EMP-ER] |  |  | 25% |  | 46% | 231 ± 3.7 µM |  |  |
| IDWLKLRVISVIDL-NH2 [Polybia-MP IV] |  |  | 0% | > 400 µM | 0% | > 400 µM |  |  |
| LNFKALAALAKKIL-NH2 [Pm-R2] |  |  | 66% | 166 ± 8 µM | 34% | 250 ± 9.9 µM |  |  |
| FDVMGIIKKIASAL-NH2 [EMP-EF] |  |  | 100% | 125 ± 20.6 µM | 48% | 216.8 ± 1.6 µM |  |  |
| INWLKLGKKVIAAL-NH2 [Protopolybia-MPIII-6] | 110 ± 2.5 µM | 108 ± 3.2 µM |  |  |  |  |  |  |
| INWLKLGKKILGAL-NH2 [PDD-B] |  |  | 100% | 48.5 ± 3.4 µM | 100% | 55.6 ± 4.1 µM |  |  |
| LNLKGLFKKVASLLT [Eumenitin-F] |  |  | 67% | 157 ± 2.6 µM | 44% | 207.1 ± 2 µM |  |  |
| GRILSFIKGLAEHL-NH2 [EMP-OD] |  |  | 2% |  | 49% | 190 ± 32 µM |  |  |
| INWKKIASIGKEVLKAL-NH2 [PMM2] |  |  | 100% | 42.6 ± 2.5 µM | 100% | 80.9 ± 6.4 µM |  |  |
| IDWLKLGKMVMDVL-NH2 [Polybia-MP III] |  |  | 79% | 38.5 ± 5.9 µM | 100% | 74.8 ± 10.4 µM |  |  |
| INWLKLGKAVIDAL-NH2 [Protopolybia-MPIII] |  | 42.8 ± 2.1 µM | 96% | 61.9 ± 8.3 µM | 93% | 34.6 ± 2.8 µM |  |  |

| Molecule | EC50 [1, 3] | EC50 [2, 4] | HRBC Hemolysis (hemolysis rate at 320 μg/mL) ([1]; 1% Triton X-100 = 100%) | EC50 [1, 5] | RRBC Hemolysis (hemolysis rate at 320 μg/mL) ([2]; 1% Triton X-100 = 100%) | EC50 [2, 6] | EC50 ([1]; peptide 10-320 μg/mL twofold dilutions, 1% Triton X-100 = 100%, listed as Polybia-MPII, read-out: HRBC EC50 (hemolytic activity)) | EC50 ([1]; peptide 10-320 μg/mL twofold dilutions, 1% Triton X-100 = 100%, listed as Polybia-MPI, read-out: HRBC EC50 (hemolytic activity)) |
| --- | --- | --- | --- | --- | --- | --- | --- | --- |
| INWLKLGKAVSAIL-NH2 [Protopolybia-MPIII-11] | 141 ± 2.4 µM | 134 ± 2.2 µM |  |  |  |  |  |  |
| INLKALLAVAKKIL-NH2 [Mastoparan-C] |  |  | 100% |  | 100% | 64.4 ± 10.7 µM |  |  |
| INLKVFAALVKKFL-NH2 [Mastoparan-T1] |  |  | 100% | 30.8 ± 1.6 µM | 87% | 22.7 ± 7.1 µM |  |  |
| INWLKLGKMVIDAL-NH2 [Polybia-MP II] |  |  | 91% | 23.3 ± 1.4 µM | 100% | 29.1 ± 1.5 µM | ≤ 400 µM |  |
| INWLKLGKKILGAI-NH2 [Pm-R1] |  |  | 100% | 72 ± 8.5 µM | 92% | 105 ± 2.2 µM |  |  |
| INWKALLDAAKKVL-NH2 [Protonectarina-MP] |  |  | 100% |  | 35% | 326 ± 26.4 µM |  |  |
| INLKALAALVKKVL-NH2 [Mastoparan-II] |  |  | 78% | 134.6 ± 1.2 µM | 90% | 147 ± 3.4 µM |  |  |
| INWLKLGKAVSDIL-NH2 [Protopolybia-MPIII-9] | 167 ± 2.7 µM | 161.7 ± 1.3 µM |  |  |  |  |  |  |
| INWKKIFQKVKNLV-NH2 [PDD-A] |  |  | 30% | 354 ± 44.8 µM | 27% |  |  |  |
| IDWKKLLDAAKQIL-NH2 [Polybia-MP I] |  |  | 56% | 177 ± 7 µM | 100% | 51.4 ± 2.2 µM |  | ≤ 400 µM |
| VDWKKIGQHILSVL-NH2 [Mastoparan-J] |  |  | 100% | 69.5 ± 3.2 µM | 100% | 60.1 ± 1.3 µM |  |  |
| INWLKLGKAVSDAL-NH2 [Protopolybia-MPIII-2] | 673 ± 189 µM | 639.5 ± 1.6 µM |  |  |  |  |  |  |
| INWKKMAATALKMI-NH2 [Parapolybia-MP] |  |  | 32% | ≥ 400 µM and > 400 µM and 306 µM | 22% |  |  |  |
| INWKKIKSIIKAAMN-NH2 [Mastoparan-V1] |  |  | 9% |  | 16% |  |  |  |
| INWLKLGKAVIAAL-NH2 [Protopolybia-MPIII-3] | 16.8 ± 1 µM | 21.5 ± 1.2 µM |  |  |  |  |  |  |
| INLLKIAKGIIKSL-NH2 [EMP-AF] |  |  | 100% | 111 ± 9.8 µM | 100% | 122 ± 13.1 µM |  |  |
| INLRGFAALVKKFL-NH2 [Mastoparan-T3] |  |  | 100% | 112 ± 8 µM | 100% | 51.6 ± 2.1 µM |  |  |
| INWKGIAAMAKKLL-NH2 [Mastoparan-X(V)] |  |  | 29% | ≤ 400 µM and 349 µM | 70% | 156 ± 2.4 µM |  |  |
| INWHDIAIKNIDAL-NH2 [Polybia-MP V] |  |  | 0% | > 400 µM | 0% | > 400 µM |  |  |
